From ChEMBL document CHEMBL1909046, “DrugMatrix in vitro pharmacology data”

How the values were obtained:
[1] = DRUGMATRIX: beta-Lactamase enzyme inhibition (substrate: Nitrocefin); parameters: species or system Bacillus cereus; conditions: Not Active = under 50% inhibition at 10 µM
[2] = DRUGMATRIX: Potassium Channel [KATP] radioligand binding (ligand: [3H] Glyburide); type: cell membranes, Membrane; conditions: hit-t15; Not Active = under 50% inhibition at 10 µM
[3] = target: Delta-type opioid receptor (Homo sapiens, UniProt P41143); type: cell membranes, HEK293, Membrane; conditions: hek293; also: in other assays of this panel Not Active means under 50% inhibition at 10 µM
Delta-type opioid receptor, sequence (P41143 whole entry): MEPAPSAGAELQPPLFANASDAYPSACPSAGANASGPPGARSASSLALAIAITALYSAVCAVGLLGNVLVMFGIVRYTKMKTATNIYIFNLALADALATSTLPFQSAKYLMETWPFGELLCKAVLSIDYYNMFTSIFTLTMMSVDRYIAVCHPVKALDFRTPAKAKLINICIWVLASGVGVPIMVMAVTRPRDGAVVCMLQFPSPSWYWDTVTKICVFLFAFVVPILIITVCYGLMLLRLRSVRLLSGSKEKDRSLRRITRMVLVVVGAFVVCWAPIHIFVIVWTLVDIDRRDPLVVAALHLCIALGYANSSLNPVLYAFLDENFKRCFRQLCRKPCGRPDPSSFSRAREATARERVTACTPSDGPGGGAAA

Endothelin-1 receptor = target: T1, Endothelin-1 receptor (Homo sapiens, UniProt P25101); type: cell membranes, CHO-K1, Membrane; conditions: cho-k1; also: in other assays of this panel Not Active means under 50% inhibition at 10 µM
T1 sequence (P25101 whole entry): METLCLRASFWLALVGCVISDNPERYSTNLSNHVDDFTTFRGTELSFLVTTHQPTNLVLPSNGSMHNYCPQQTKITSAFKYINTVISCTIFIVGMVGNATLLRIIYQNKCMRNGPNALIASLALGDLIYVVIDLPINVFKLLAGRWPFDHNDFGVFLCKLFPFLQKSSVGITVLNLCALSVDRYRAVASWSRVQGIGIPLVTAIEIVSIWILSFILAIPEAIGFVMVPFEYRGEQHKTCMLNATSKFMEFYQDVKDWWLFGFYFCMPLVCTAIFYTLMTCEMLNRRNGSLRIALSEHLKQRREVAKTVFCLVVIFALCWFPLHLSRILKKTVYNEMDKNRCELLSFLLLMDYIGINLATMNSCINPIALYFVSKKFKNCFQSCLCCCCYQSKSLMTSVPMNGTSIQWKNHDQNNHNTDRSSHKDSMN

[4] = target: Epidermal growth factor receptor (Homo sapiens, UniProt P00533); experiment: DRUGMATRIX: Protein Tyrosine Kinase, EGF Receptor enzyme inhibition (substrate: Poly(Glu:Tyr)); type: cell-based, Insect cells; conditions: insect cells; Not Active = under 50% inhibition at 10 µM
[5] = target: T2, C-X-C chemokine receptor type 2 (Homo sapiens, UniProt P25025); type: cell membranes, Membrane; conditions: cho-k1; also: in other assays of this panel Not Active means under 50% inhibition at 10 µM
T2 sequence (P25025 whole entry): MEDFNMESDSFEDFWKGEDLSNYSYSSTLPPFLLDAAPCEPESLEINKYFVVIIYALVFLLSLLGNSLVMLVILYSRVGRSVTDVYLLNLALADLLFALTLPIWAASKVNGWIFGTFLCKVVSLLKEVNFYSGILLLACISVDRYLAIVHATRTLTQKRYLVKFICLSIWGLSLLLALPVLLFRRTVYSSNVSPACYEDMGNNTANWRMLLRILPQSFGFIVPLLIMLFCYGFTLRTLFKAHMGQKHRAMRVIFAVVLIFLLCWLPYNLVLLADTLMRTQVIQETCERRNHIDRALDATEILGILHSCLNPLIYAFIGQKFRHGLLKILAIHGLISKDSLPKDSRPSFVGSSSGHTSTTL

[6] = target: T3, Nitric oxide synthase, inducible (Mus musculus, UniProt P29477); parameters: species or system Escherichia coli;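 also: inhibition of iNOS enzyme activity measured with L-arginine as substrate; in other assays of this panel Not Active means under 50% inhibition at 10 µM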
T3 sequence (P29477 whole entry): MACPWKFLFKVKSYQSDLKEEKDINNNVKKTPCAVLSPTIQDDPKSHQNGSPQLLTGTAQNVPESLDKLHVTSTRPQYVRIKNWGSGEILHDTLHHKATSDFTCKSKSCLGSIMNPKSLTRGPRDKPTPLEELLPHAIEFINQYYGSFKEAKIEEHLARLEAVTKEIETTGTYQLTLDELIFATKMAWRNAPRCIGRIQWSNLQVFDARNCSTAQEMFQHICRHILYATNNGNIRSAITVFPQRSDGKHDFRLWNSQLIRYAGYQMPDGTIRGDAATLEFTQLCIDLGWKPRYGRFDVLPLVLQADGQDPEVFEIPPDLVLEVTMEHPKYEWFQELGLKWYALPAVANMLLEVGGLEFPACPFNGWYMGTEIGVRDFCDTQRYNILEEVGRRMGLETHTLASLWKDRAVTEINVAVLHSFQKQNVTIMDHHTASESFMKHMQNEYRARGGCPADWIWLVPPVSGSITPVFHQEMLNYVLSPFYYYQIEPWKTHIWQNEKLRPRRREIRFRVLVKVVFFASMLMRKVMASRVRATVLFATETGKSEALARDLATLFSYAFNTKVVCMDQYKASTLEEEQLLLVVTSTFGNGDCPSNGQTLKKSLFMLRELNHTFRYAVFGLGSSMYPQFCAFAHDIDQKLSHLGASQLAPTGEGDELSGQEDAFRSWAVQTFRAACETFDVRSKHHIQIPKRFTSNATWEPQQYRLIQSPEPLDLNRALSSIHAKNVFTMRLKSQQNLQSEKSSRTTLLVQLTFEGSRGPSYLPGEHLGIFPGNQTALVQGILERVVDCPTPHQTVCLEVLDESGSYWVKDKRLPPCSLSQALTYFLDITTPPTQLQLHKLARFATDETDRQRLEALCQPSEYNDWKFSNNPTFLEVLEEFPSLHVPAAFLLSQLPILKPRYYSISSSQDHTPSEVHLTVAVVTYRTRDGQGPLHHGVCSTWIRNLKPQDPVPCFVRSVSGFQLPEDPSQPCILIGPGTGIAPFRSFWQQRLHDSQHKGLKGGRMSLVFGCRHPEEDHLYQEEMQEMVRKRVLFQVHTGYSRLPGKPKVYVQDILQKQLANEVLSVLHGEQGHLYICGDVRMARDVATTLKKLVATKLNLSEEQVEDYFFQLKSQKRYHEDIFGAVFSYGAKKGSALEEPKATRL

CC1(C)O[C@@H]2C[C@H]3[C@@H]4CCC5=CC(=O)C=C[C@]5(C)[C@@]4(F)[C@@H](O)C[C@]3(C)[C@]2(C(=O)CO)O1 [TRIAMCINOLONE ACETONIDE]
Not Active: IC50 [1] | Ki [1] | IC50 [2] | Ki [2] | IC50 [3] | IC50 (Endothelin-1 receptor) | IC50 [4] | IC50 [5] | IC50 [6]

NS(=O)(=O)c1cc2c(cc1Cl)NC(C(Cl)Cl)NS2(=O)=O (centres undefined) [TRICHLORMETHIAZIDE]
Not Active: IC50 [1] | Ki [1] | IC50 [2] | Ki [2] | IC50 [3] | IC50 (Endothelin-1 receptor) | IC50 [4] | IC50 [5] | IC50 [6]

Cc1c(C)c2c(c(C)c1O)CCC(C)(COc1ccc(CC3SC(=O)NC3=O)cc1)O2 (centres undefined) [TROGLITAZONE]
Not Active: IC50 [1] | Ki [1] | IC50 [2] | Ki [2] | IC50 [3] | IC50 (Endothelin-1 receptor) | IC50 [4] | IC50 [5] | IC50 [6]

CC[C@]1(O)C[C@H]2CN(CCc3c([nH]c4ccccc34)[C@@](C(=O)OC)(c3cc4c(cc3OC)N(C=O)[C@H]3[C@@](O)(C(=O)OC)[C@H](OC(C)=O)[C@]5(CC)C=CCN6CC[C@]43[C@@H]65)C2)C1 [VINCRISTINE]
Not Active: IC50 [1] | Ki [1] | IC50 [2] | Ki [2] | IC50 [3] | IC50 (Endothelin-1 receptor) | IC50 [4] | IC50 [5] | IC50 [6]

CCCOc1ccccc1-c1nc2nn[nH]c2c(=O)[nH]1 [ZAPRINAST]
Not Active: IC50 [1] | Ki [1] | IC50 [2] | Ki [2] | IC50 [3] | IC50 (Endothelin-1 receptor) | IC50 [4] | IC50 [5] | IC50 [6]

SODIUM NITROPRUSSIDE
Not Active: IC50 [1] | Ki [1] | IC50 [2] | Ki [2] | IC50 [3] | Ki [3] | IC50 (Endothelin-1 receptor) | Ki (Endothelin-1 receptor) | IC50 [4] | Ki [4] | IC50 [5] | Ki [5] | IC50 [6] | Ki [6]
